Key:
Assay type in all cases: cell-based, mice
EpiSC-derived OPCs [1] = experiment: Modulation of OPC differentiation by extrinsic factors in T3 differentiation medium
Experimental: (§1) For differentiation of OPCs into oligodendrocytes, cells were plated at 2.2×10^4 cells cm^−2 and induced with neural base medium supplemented with 0.4 ng ml^−1 T3 (Sigma-Aldrich, St. Louis, Mo.), 200 ng ml^−1 SHH, 100 ng ml^−1 noggin, 10 μM dibutyryl cyclic-AMP sodium salt, 100 ng ml^−1 IGF-1 and 10 ng ml^−1 NT3. Attempts to modulate the outcome of this differentiation paradigm included treatments with Jag1 (R&D Systems, Minneapolis, Minn.), CHIR99021 (Stemgent, San Diego, Calif.), LIF (Millipore, Billerica, Mass.) and/or BMP4 (R&D Systems, Minneapolis, Minn.).
Next, the ability of extrinsic factors to modulate the differentiation of Epi-SC-derived OPCs was explored. […] As a simple proof-of-principle for using the system to screen for compounds, EpiSC-derived OPCs were exposed to three different treatment regimens involving modulation of signaling pathways (Notch, Wnt-β-catenin and BMP) previously implicated in oligodendrocyte development or differentiation. […] Using a similar protocol, the role of GSK3β, a negative regulator of Wnt-β-catenin signaling, was tested by treating EpiSC-derived OPCs with the GSK3β inhibitor CHIR99021.

EpiSC-derived OPCs [2] = experiment: Differentiation of EpiSC-derived OPCs into oligodendrocytes; conditions: day 2 of differentiation, absence of FGF2 and PDGF-AA, n>480 cells
Experimental: as §1
Live-cell staining was used for the cell-surface marker O4. Live cells were blocked with 10% normal goat serum and treated with O4 antibody for 20 min at 37° C. Cells were gently rinsed three times with warm neural base medium and fixed in 4% paraformaldehyde. […]
To determine the differentiation capacity of the EpiSC-derived OPCs, the EpiSc-derived OPCs were treated with thyroid hormone (T3), which is known to be important both in vitro and in vivo in regulating the transition of OPCs into oligodendrocytes, in the absence of both FGF2 and PDGF-AA. […] By day 4, the overwhelming majority of EpiSC-derived OPCs had become oligodendrocytes, though cell death and rare proliferation events made exact quantification challenging without large-scale time-lapse lineage analysis. […]

EpiSC-derived OPCs [3] = experiment: Respecification of EpiSC-derived OPCs into astrocytes; conditions: combined treatment with BMP4 and LIF; majority of cells
Experimental: as §1
The final treatment involved exposure of EpiSC-derived OPCs to signaling cascades known to respecify OPCs in vitro into an alternate glial fate, astrocytes.

[4] = test system: EpiSC-derived patterned neuroectoderm; experiment: Region-specific patterning of EpiSC-derived neuroectoderm; conditions: Day-4 neuroectoderm treated 1 day with retinoic acid and SHH in continued presence of noggin (combined)
Experimental: On day 4, cultures were fed with neural base medium supplemented with 100 ng ml^−1 noggin, 10 μM retinoic acid (Sigma-Aldrich, St. Louis, Mo.; maintained as a 20 mM stock solution in DMSO) and 200 ng ml^−1 SHH (R&D Systems; C24II). To test whether the induced patterned neuroectoderm behaved as un-induced neuroectoderm behaves, the induced EpiSC-derived patterned neuroectoderm were patterned in a region-specific manner. […] Day-4 EpiSC-derived patterned neuroectoderm was treated for 1 day with specific concentrations of retinoic acid and SHH in the continued presence of noggin to pattern them in a region-specific way.

## Cc1c[nH]c(-c2cnc(NCCNc3ccc(C#N)cn3)nc2-c2ccc(Cl)cc2Cl)n1 [CHIR99021]
EpiSC-derived OPCs [1]; FIG. 5, treatment of OPCs
  expression of mature oligodendrocyte markers: suppression
EpiSC-derived OPCs [1]; T3 differentiation medium, FIG. 5
  oligodendrocyte differentiation (progression of Olig2+ OPCs to O4+ oligodendrocytes): concentration-dependent inhibition

## N[C@@H](Cc1cc(I)c(Oc2ccc(O)c(I)c2)c(I)c1)C(=O)O [T3, triiodothyronine]
EpiSC-derived OPCs [2]
  cells strongly O4+ with multiprocessed morphology: greater than 64%

## Jagged1: the Notch ligand Jagged1 (Jag1)
EpiSC-derived OPCs [1]; 2 days, T3 differentiation medium
  rate or number of O4+ oligodendrocytes: did not impact

## LIF: leukemia inhibitory factor, activator of JAK/STAT pathways
EpiSC-derived OPCs [3]
  respecification into astrocytes (morphological and gene expression changes): upregulation of GFAP

B1: noggin: a BMP antagonist; secreted polypeptide encoded by the NOG gene (protein, UniProt Q13253 28-232, looked up)
Noggin: QHYLHIRPAPSDNLPLVDLIEHPDPIFDPKEKDLNETLLRSLLGGHYDPGFMATSPPEDRPGGGGGAAGGAEDLAELDQLLRQRPSGAMPSEIKGLEFSEGLAQGKKQRLSKKLRRKLQMWLWSQTFCPVLYAWNDLGSRFWPRYVKVGSCFSKRSCSVPEGMVCKPSKSVHLTVLRWRCQRRGGQRCGWIPIQYPIISECKCSC
[4]
  expression of OPC-relevant transcription factors Olig2 and Nkx2.2: upregulation

B2: BMP4: bone morphogenetic protein 4, ligand of the TGF beta superfamily (protein, UniProt P12644 293-408, looked up)
Bone morphogenetic protein 4: SPKHHSQRARKKNKNCRRHSLYVDFSDVGWNDWIVAPPGYQAFYCHGDCPFPLADHLNSTNHAIVQTLVNSVNSSIPKACCVPTELSAISMLYLDEYDKVVLKNYQEMVVEGCGCR
EpiSC-derived OPCs [3]
  respecification into astrocytes (morphological and gene expression changes): upregulation of GFAP

From US9193951B2, “Differentiation method for production of glial cell populations” (Case Western Reserve University, priority 2010, dated 2015)
